Measured values published in US20190145978A1, “APPLICATION OF PDE3A IN JUDGMENT OF TUMOR TREATMENT EFFECT OF ANAGRELID” (Shanghai Institute of Materia Medica, Chinese Academy of …, priority 2016, published 2019).
Like-named read-outs stand apart in the source and are kept apart here.

Assays:
Bel7404 = test: MTT assay, IC50 of anagrelide on tumor cell line; assay type: cell-based; conditions: Homo sapiens, BEL-7404, 72 h
Description: (§1) 3. Determination of Half Poisoning Dose of Drugs to Cells (MTT Method)
(§2) The liquid containing drugs was continuously geometrically diluted to 1:10, 1:100, 1:1,000, 1:10,000 with a cell maintenance solution, and a normal cell control group was set up. Different concentrations of each drug were added into a 96-well plate that has been grown into a single layer, respectively, and inoculated per dilution in triplicate, and 100 μl was added per well, and the plate was incubated in a carbon dioxide incubator at 37° C. for 72 h, followed by 5 μg/ml 25 μL of MTT was added.
(§3) The culture was continued for 3.5 h, and the supernatant was removed and discarded. 150 μl of the dissolving solution DMSO was added to each well, and the plate was shaked for 5 to 10 min, until the crystals were completely dissolved. Then the OD value at 570 nm was measured by a microplate reader. The cell viability of each drug dilution was calculated: cell viability %=(mean value of experimental well OD measured value/mean value of control well OD measured value)×100%. The drug concentration at 50% cell poisoning (IC50) was calculated using probability unit regression.
(§4) The cell lines in Example 1 were subjected to an activity assay using Anagrelide at a concentration of 1 μM, and the cell lines were classified into three categories according to cell viability: sensitive (S), moderately sensitive (M), and insensitive (R), and the IC50 value of anagrelide in inhibiting each cell line was further determined.

H4 = test: MTT assay, IC50 of anagrelide on tumor cell line; assay type: cell-based; conditions: Homo sapiens, 72 h
Description: as §1, §2, §3, §4

FHCC98 = test: MTT assay, IC50 of anagrelide on tumor cell line; assay type: cell-based; conditions: Homo sapiens, FHCC-98, 72 h
Description: as §1, §2, §3, §4

SW1116 = test: MTT assay, IC50 of anagrelide on tumor cell line; assay type: cell-based; conditions: Homo sapiens, SW 1116, 72 h
Description: as §1, §2, §3, §4

A498 = test: MTT assay, IC50 of anagrelide on tumor cell line; assay type: cell-based; conditions: Homo sapiens, 72 h
Description: as §1, §2, §3, §4

SMMC7721 = test: MTT assay, IC50 of anagrelide on tumor cell line; assay type: cell-based; conditions: Homo sapiens, SMMC-7721, 72 h
Description: as §1, §2, §3, §4

Hela = test: MTT assay, IC50 of anagrelide on tumor cell line; assay type: cell-based; conditions: Homo sapiens, 72 h
Description: as §1, §2, §3, §4

[1] = test system: SMMC7721, FHCC98, H4, and HeLa; test: Antitumor activity assay (MTT), anagrelide-sensitive PDE3A-positive cell lines; assay type: cell-based, human; conditions: for IC50: Homo sapiens
Description: (§5) Wherein anagrelide (1 μM) is used for treatment for 72 hours, and MTT assay is used to detect the cell survival rate. The cells are classified by the test results: sensitive (survival rate <40%), moderately sensitive (40-75% of survival rate), resistance (survival rate >75. The cell names in the figure are marked with a circle and a triangle respectively to identify the sensitive group and the moderately sensitive group. 3. Determination of Half Poisoning Dose of Drugs to Cells (MTT Method) The liquid containing drugs was continuously geometrically diluted to 1:10, 1:100, 1:1,000, 1:10,000 with a cell maintenance solution, and a normal cell control group was set up. Different concentrations of each drug were added into a 96-well plate that has been grown into a single layer, respectively, and inoculated per dilution in triplicate, and 100 μl was added per well, and the plate was incubated in a carbon dioxide incubator at 37° C. for 72 h, followed by 5 μg/ml 25 μL of MTT was added. The culture was continued for 3.5 h, and the supernatant was removed and discarded. 150 μl of the dissolving solution DMSO was added to each well, and the plate was shaked for 5 to 10 min, until the crystals were completely dissolved. Then the OD value at 570 nm was measured by a microplate reader. The cell viability of each drug dilution was calculated: cell viability %=(mean value of experimental well OD measured value/mean value of control well OD measured value)×100%. The drug concentration at 50% cell poisoning (IC50) was calculated using probability unit regression. The cell lines in Example 1 were subjected to an activity assay using Anagrelide at a concentration of 1 μM, and the cell lines were classified into three categories according to cell viability: sensitive (S), moderately sensitive (M), and insensitive (R), and the IC50 value of anagrelide in inhibiting each cell line was further determined.

[2] = test system: Twenty cell lines negatively expressing PDE3A; test: Antitumor activity assay (MTT), PDE3A-negative cell lines; assay type: cell-based, human
Description: as §5, with “150 μl of the dissolving solution DMSO was added to each well, and the plate was shaked for 5 to 10 min, until the crystals were completely dissolved.” left out, “The drug concentration at 50% cell poisoning (IC50) was calculated using probability unit regression. The cell lines in Example 1 were subjected to an activity assay using Anagrelide at a concentration of 1 μM, and the cell lines were classified into three categories according to cell viability: sensitive (S), moderately sensitive (M), and insensitive (R), and the IC50 value of anagrelide in inhibiting each cell line was further determined.” left out

platelets = test: Inhibition of platelets in vitro; assay type: cell-based; conditions: Platelet; read-out: IC50 of anagrelide inhibiting platelets in vitro
[3] = test system: HeLa cells transfected with pde3a siRNA; test: PI detection of apoptotic cells in HeLa after PDE3A knockdown and anagrelide treatment; assay type: cell-based, human; conditions: 48 hours after PDE3A knockout, anagrelide 36 hours, PI staining
Description: The HeLa cells in logarithmic growth phase were inoculated into 96-well plates or RTCA plates at about 6000/well and cultivated overnight until the cells were attached about 70-80%, and the cells were in good condition; a certain amount of serum-free and antibiotic-free medium was added into two EP tubes, respectively, and a suitable amount of siRNA was added into one tube and mixed, while a suitable amount of Lipofectamine™2000 was added into the other tube and mixed at room temperature for 5-10 min. The medium supplemented with Lipofectamine™ reagent was added into the siRNA-containing EP tube and mixed at room temperature for 15 min; during the placement, the cells were washed once with serum-free and non-double antibody medium, and 75 μL of the medium was added, ready for use. After 15 minutes, the mixed medium was added into the cell culture dish, 25 μL/well, and gently shaken and mixed; after cultured at 37° C., 5% CO2 for 6 hours, the medium was changed to fresh medium containing 10% FBS; after 24-72 h, the expression of RNAi interference protein was detected by western blot. In 96-well plates, cells were treated with different compounds for 24-36 hours, and 2 μL of PI dye liquor (25 ug/mL) was added into 96-well plates. Cells were incubated for 20 min, and photographed under a fluorescence microscope for observation of the number of red fluorescent cells. […]

[4] = test system: HeLa cells transfected with pde3a siRNA; test: RTCA growth monitoring of HeLa cells after pde3a siRNA knockdown and anagrelide treatment; assay type: cell-based, human; conditions: pde3a siRNA KD1/KD2 vs NC
Description: Wherein, NC: control group, KD: PDE3A knockdown group. The HeLa cells in logarithmic growth phase were inoculated into 96-well plates or RTCA plates at about 6000/well and cultivated overnight until the cells were attached about 70-80%, and the cells were in good condition; a certain amount of serum-free and antibiotic-free medium was added into two EP tubes, respectively, and a suitable amount of siRNA was added into one tube and mixed, while a suitable amount of Lipofectamine™2000 was added into the other tube and mixed at room temperature for 5-10 min. The medium supplemented with Lipofectamine™ reagent was added into the siRNA-containing EP tube and mixed at room temperature for 15 min; during the placement, the cells were washed once with serum-free and non-double antibody medium, and 75 μL of the medium was added, ready for use. After 15 minutes, the mixed medium was added into the cell culture dish, 25 μL/well, and gently shaken and mixed; after cultured at 37° C., 5% CO2 for 6 hours, the medium was changed to fresh medium containing 10% FBS; after 24-72 h, the expression of RNAi interference protein was detected by western blot. […] The real-time monitor automatically monitored cell growth for more than 4 days, and the amount of cells was reflected according to the size of the resistance formed by spreading the cells. […]

Bel7404, A498 and SW1116 = test: Antitumor activity assay (MTT), moderately sensitive PDE3A-positive cell lines; assay type: cell-based, human
Description: as §5, with “150 μl of the dissolving solution DMSO was added to each well, and the plate was shaked for 5 to 10 min, until the crystals were completely dissolved.” left out, “The drug concentration at 50% cell poisoning (IC50) was calculated using probability unit regression. The cell lines in Example 1 were subjected to an activity assay using Anagrelide at a concentration of 1 μM, and the cell lines were classified into three categories according to cell viability: sensitive (S), moderately sensitive (M), and insensitive (R), and the IC50 value of anagrelide in inhibiting each cell line was further determined.” left out

[5] = Animal experiment, safety at tumor-inhibiting doses; assay type: in vivo; conditions: 10 mg-200 mg/kg

- IC50 (Bel7404): 428 nM
- IC50 (H4): 23 nM
- IC50 (FHCC98): 8 nM
- IC50 (SW1116): 14500 nM
- IC50 (A498): 15900 nM
- IC50 (SMMC7721): 15 nM
- IC50 (Hela): 22 nM
- IC50 ([1]; SMMC7721, FHCC98, H4, HeLa (PDE3A positive), read-out: IC50 values, sensitive cell lines): < 30 nM
- IC50 ([1]; sensitive tumor cells, in vitro, read-out: IC50 for sensitive tumor cells in vitro): < 30 nM
- IC50 ([2]; Homo sapiens, twenty cell lines negatively expressing PDE3A): > 50000 nM
- IC50 (platelets): 270 to 1000 nM
- IC50 (Bel7404, A498 and SW1116; Homo sapiens, Bel7404, A498, SW1116 (PDE3A positive)): 400 to 16000 nM
SMILES: O=C1CN2Cc3c(ccc(Cl)c3Cl)NC2=N1 [anagrelide, 6,7-dichloro-1,5-dihydroimidazo [2,1-b]quinazolin-2(3H) one]
- sensitivity class by cell survival rate ([1]; anagrelide 1 μM, 72 hours, MTT): sensitive (sensitive (survival rate <40%))
- sensitivity class by cell survival rate ([2]; anagrelide 1 μM, 72 hours, MTT): not sensitive
- PI positive cells, KD group vs control group [3]: fewer PI positive cells than that in the control group
- survival rate after anagrelide was added, KD vs NC group [4]: the survival rate of KD2 with the lower level of PDE3A protein was the highest, while that in the NC group was the lowest
- sensitivity class by cell survival rate (Bel7404, A498 and SW1116; anagrelide 1 μM, 72 hours, MTT): moderately sensitive (moderately sensitive (40-75% of survival rate))
- safety at doses that inhibit tumor cell growth [5]: safe
